# Tests used:
# Format in all cases: in vivo
# [1] = tested on: German cockroaches (Blattella germanica); assay: Test Example 9: control test against German cockroaches, spray in chamber; details: adult German cockroaches; 1.5 mL sprayed; concentration [%]: broflanilide 0.02, imiprothrin 0.01, permethrin 0.05, alone or mixed; 420 minutes after spraying
# Text: (§1) Next, the usefulness of the inventive composition for controlling pests will be indicated by Test Examples.
# (§2) (hereinafter referred to as expected value A)
# (§3) (hereinafter referred to as expected value B)
# (§4) In a plastic cup (diameter: 12.4 cm, height: 10.2 cm) lined with a filter paper, ten adult German cockroaches (Blattella germanica) (five males and five females each) were released, and the plastic cup was placed in the center of the bottom of a box-shaped chamber (46 cm×46 cm×70 cm in height). From the height of 60 cm, 1.5 mL of each of formulations prepared by dissolving a single agent of any one of broflanilide, imiprothrin and permethrin, or a mixed agent of two or more thereof in a mixture of isopropyl alcohol and Isopar M at a mixing ratio of 1:9 was sprayed under a spray pressure of 0.041 MPa. After a lapse of 420 minutes from spraying, the number of dead and moribund individuals was examined, and moribund and mortal rates (%) were determined by the above equation 3. The test was performed through two replicates. Dead individuals are completely immobile individuals, and moribund individuals are individuals who cannot get up when turned on their backs.
# [2] = tested on: German cockroaches (Blattella germanica); assay: Test Example 10: control test against German cockroaches, spray in chamber; details: adult German cockroaches; 1.5 mL sprayed; concentration [%]: nicofluprole 0.01, imiprothrin 0.01, permethrin 0.05, alone or mixed; 60 minutes after spraying
# Description: (§5) Next, the usefulness of the inventive composition for controlling pests will be indicated by Test Examples. In general, the control effect to be expected when treated with a mixture obtained by mixing given two or three types of active ingredient compounds is determined by the Colby's calculation equation represented by the following [Equation 1] and [Equation 2].
# (§6) [formula] • P: moribund and mortal rates (%) when treated with an active ingredient compound X in the concentration of m [ppm] • Q: moribund and mortal rates (%) when treated with an active ingredient compound Y in the concentration of n [ppm] • EA: moribund and mortal rates (%) when treated with an active ingredient compound X in the concentration of m [ppm] and an active ingredient compound Y in the concentration of n [ppm] (hereinafter referred to as expected value A) […]
# (§7) Regarding the synergistic effect of three types of the active ingredient compounds, in case where the moribund and mortal rates (%) when actually treated with a mixture obtained by mixing three types of the active ingredient compounds exceed the expected value A calculated by using the moribund and mortal rates (%) when actually treated with a mixture obtained by mixing two types of the active ingredient compounds among three types thereof, and the moribund and mortal rates (%) calculated when actually treated the remaining one type of the active ingredient compound, or the expected value B (%) calculated from the moribund and mortal rates (%) when actually treated with each of three types of the active ingredient compounds alone, it was determined that the synergistic effect exists. […]
# [3] = tested on: German cockroaches (Blattella germanica); assay: Test Example 11: control test against German cockroaches, spray in chamber; details: adult German cockroaches; 1.5 mL sprayed; concentration [%]: isocycloseram 0.01, imiprothrin 0.01, permethrin 0.05, alone or mixed; 120 minutes after spraying
# Description: as §5, §6, §7
# [4] = tested on: German cockroaches (Blattella germanica); assay: Test Example 2: control test against German cockroaches, spray in chamber; details: adult German cockroaches; 1.5 mL sprayed; concentration [%]: nicofluprole 0.01, imiprothrin 0.01, cypermethrin 0.01, alone or mixed; 120 minutes after spraying
# Description: as §5, §6, §7
# [5] = tested on: German cockroaches (Blattella germanica); assay: Test Example 4: control test against German cockroaches, spray in chamber; details: adult German cockroaches; 1.5 mL sprayed; concentration [%]: nicofluprole 0.01, imiprothrin 0.01, deltamethrin 0.0002, alone or mixed; 45 minutes after spraying
# Description: as §5, §6, §7
# [6] = tested on: German cockroaches (Blattella germanica); assay: Test Example 5: control test against German cockroaches, spray in chamber; details: adult German cockroaches; 1.5 mL sprayed; concentration [%]: nicofluprole 0.01, imiprothrin 0.01, cyfluthrin 0.0002, alone or mixed; 45 minutes after spraying
# Text: as §1, §2, §3
# as §4, with “each) […]” for “each)”, “nicofluprole,” for “broflanilide,”, “cyfluthrin,” for “permethrin,”, “45” for “420”
# [7] = tested on: German cockroaches (Blattella germanica); assay: Test Example 8: control test against German cockroaches, spray in chamber; details: adult German cockroaches; 1.5 mL sprayed; concentration [%]: nicofluprole 0.01, imiprothrin 0.01, phenothrin 0.1, alone or mixed; 45 minutes after spraying
# Description: as §5, §6, §7
# [8] = tested on: German cockroaches (Blattella germanica); assay: Test Example 6: control test against German cockroaches, spray in chamber; details: adult German cockroaches; 1.5 mL sprayed; concentration [%]: isocycloseram 0.05, imiprothrin 0.01, lambda-cyhalothrin 0.0025, alone or mixed; 60 minutes after spraying
# Description: as §5, §6, §7
# [9] = tested on: German cockroaches (Blattella germanica); assay: Test Example 7: control test against German cockroaches, spray in chamber; details: adult German cockroaches; 1.5 mL sprayed; concentration [%]: isocycloseram 0.05, imiprothrin 0.01, cypermethrin 0.01, alone or mixed; 120 minutes after spraying
# Description: as §5, §6, §7
compound,measurement,setting,value
"CC1(C)C(C=C(Cl)Cl)C1C(=O)OCc1cccc(Oc2ccccc2)c1 (centres unmarked) [Permethrin, permethrin]",Moribund and mortal rates [%] after 420 minutes,[1],5%
same,Moribund and mortal rates [%] after 60 minutes,[2],5%
same,Moribund and mortal rates [%] after 120 minutes,[3],5%
"CN(C(=O)c1cc(-c2cnn(-c3c(Cl)cc(C(F)(C(F)(F)F)C(F)(F)F)cc3Cl)c2)cnc1Cl)C1CC1 [Nicofluprole, nicofluprole]",Moribund and mortal rates [%] after 120 minutes,[4],0%
same,Moribund and mortal rates [%] after 45 minutes,[5],0%
same,Moribund and mortal rates [%] after 45 minutes,[6],0%
same,Moribund and mortal rates [%] after 45 minutes,[7],0%
same,Moribund and mortal rates [%] after 60 minutes,[2],0%
"CCN1OCC(NC(=O)c2ccc(C3=NOC(c4cc(Cl)c(F)c(Cl)c4)(C(F)(F)F)C3)cc2C)C1=O (centres unmarked) [Isocycloseram, isocycloseram]",Moribund and mortal rates [%] after 60 minutes,[8],5%
same,Moribund and mortal rates [%] after 120 minutes,[9],10%
same,Moribund and mortal rates [%] after 120 minutes,[3],5%
